What was measured:
[1] = test system: P. falciparum stage V female gametocytes (female gamete formation); assay: P. falciparum dual gamete formation assay (Pf DGFA), female readout (Pfs25 expression), 48 h carry-over format; type: cell-based, Plasmodium falciparum NF54; conditions: primary screen, 2 uM, 48 h incubation, single replicate
[2] = test system: P. falciparum stage V male gametocytes (male gamete formation); assay: P. falciparum dual gamete formation assay (Pf DGFA), male readout (exflagellation), 48 h carry-over format; type: cell-based, Plasmodium falciparum NF54; conditions: primary screen, 2 uM, 48 h incubation, single replicate

Row | SMILES | %Inhibition Female @2uM [1] [%] | %Inhibition Male @2uM [2] [%]
1 | O=C(c1ccccc1)N1C[C@H]2CC[C@@H](C1)N(Cc1cc(F)ccc1Cl)C2 [DDD01251068] | <30 | 176.84
2 | Cc1oc(-c2ccoc2)nc1CN1CCC[C@H]1CO [DDD01251548] | <30 | 131.44
3 | CN(C)c1nccnc1N1CC[C@@]2(O)CCNC[C@H]2C1 [DDD01251755] | 48.40 | <30
4 | COc1ccc(CN2CCC3(CCCNC3)C2)cc1Cn1cccn1 (stereo not drawn) [DDD01251771] | <30 | 126.32
5 | CN(C)C(C(=O)N1CC(Oc2ccccc2F)C1)c1ccc(F)cc1 (stereo not drawn) [DDD01251854] | 43.98 | <30
6 | Cc1ocnc1C(=O)N1CCC(c2nccn2Cc2ccncc2)CC1 [DDD01252089] | <30 | 78.03
7 | CN(C)c1ccccc1C(=O)N1CCOC2(CNCCOC2)C1 (stereo not drawn) [DDD01252114] | <30 | 137.91
8 | COc1cccc2c1OCC(C(=O)N1CCN(C3CCCC3)C(=O)C1)C2 (stereo not drawn) [DDD01252180] | <30 | 176.84
9 | COc1ccc(-c2cc(CNc3ncnc4c3CCNCC4)no2)cc1 [DDD01252258] | 36.22 | <30
10 | CN(C)c1nc2c(c(N(C)C)n1)CCN(C(=O)CN1C[C@H]3CC[C@@H]1C3)C2 [DDD01252415] | 30.39 | <30
11 | Cc1c(NCc2cccnc2)cccc1C(=O)N1CCC(N(C)C)C1 (stereo not drawn) [DDD01252445] | <30 | 39.91
12 | c1ccn2c(C3CCCN(c4ncnc5c4CCNC5)C3)nnc2c1 (stereo not drawn) [DDD01252518] | 33.03 | <30
13 | O=C(c1cccc(S(=O)(=O)NCCc2ccccn2)c1)N1CCOCC1 [DDD01252530] | <30 | 176.84
14 | CN(C)Cc1nnc(C2CCCN(Cc3ccc(Cl)s3)C2)n1C (stereo not drawn) [DDD01252876] | <30 | 184.62
15 | Cc1cc(CC(=O)N2CCN(CC(C)C)[C@@H]3CS(=O)(=O)C[C@@H]32)ccc1F [DDD01253102] | <30 | 30.33
16 | Cc1ccc(-c2nc(CNC(C)CCO)[nH]c2-c2ccccn2)cc1 (stereo not drawn) [DDD01253542] | 47.40 | 59.22
17 | CN1CC2(CCN(C(=O)c3ccc(=O)n(C)c3)CC2)CC1=O [DDD01253564] | 30.30 | <30
18 | CS(=O)(=O)N1C[C@H]2CC[C@@H](C1)N(C(=O)CCn1cnc3ccccc31)C2 [DDD01253654] | <30 | 35.49
19 | Cc1cc(NCc2ccc(O)cc2)n2nc(C)cc2n1 [DDD01253811] | 99.46 | <30
20 | CC(C)OC(=O)N1CCC(Cc2cccc(C(N)=O)c2)C1 (stereo not drawn) [DDD01254183] | <30 | 132.02
21 | CSc1ccc(C(=O)N2CCCC(Nc3ccc(F)cc3)C2)cc1 (stereo not drawn) [DDD01254674] | <30 | 162.04
22 | Cc1oc(-c2ccoc2)nc1CN1CCCCC1CCc1ccccc1 (stereo not drawn) [DDD01254868] | <30 | 143.16

Row | SMILES | %Inhibition Female @2uM [1] [%] | %Inhibition Male @2uM [2] [%]
23 | O=C(CSc1ccncc1)N1CCC2(CC1)c1ccccc1CC2O (stereo not drawn) [DDD01255239] | <30 | 143.16
24 | CN(Cc1nccn1C)C1CCCN(CCCc2ccccc2)C1 (stereo not drawn) [DDD01255359] | <30 | 61.22
25 | CCc1nnc(CNC(=O)CCN2CCN(c3cccc(C)c3)CC2)s1 [DDD01255634] | <30 | 133.78
26 | Cc1ccc(CN2CCN(C(=O)c3ccc(CO)cc3)C(C)C2=O)cc1 (stereo not drawn) [DDD01255654] | 38.25 | <30
27 | COC(=O)C1CCN(C(=O)c2cccc(NS(C)(=O)=O)c2C)CC1 [DDD01255952] | <30 | 126.32
28 | COc1cccc2c1OCC(C(=O)N1CCC(NS(C)(=O)=O)CC1)C2 (stereo not drawn) [DDD01255971] | <30 | 160.00
29 | Cc1ccccc1C(=O)Nc1ccc(OC2CCN(C)CC2)cc1 [DDD01256105] | <30 | 177.06
30 | Cc1cnn(CCCN2C(=O)CCc3ccccc32)c1 [DDD01256166] | <30 | 31.82
31 | Cc1ccc(CN2CCCC(c3nnc(CN4CCCC4)n3C)C2)s1 (stereo not drawn) [DDD01256510] | <30 | 109.47
32 | COCCN(C)CCN1CC2(CCN(C3CCOCC3)CC2)OC1=O [DDD01256592] | <30 | 44.84
33 | O=C(O)CCc1cc2n(n1)CCCN(C(=O)c1cc3ccccc3s1)C2 [DDD01256606] | 30.77 | <30
34 | CC(C)(CNC1CCCN(Cc2ccccn2)C1)CN1CCOCC1 (stereo not drawn) [DDD01256674] | 31.10 | <30
35 | Cc1cc(C(=O)N2CCC(c3nccn3Cc3ccccn3)CC2)no1 [DDD01256728] | <30 | 88.77
36 | CCOCC(=O)N1CCC(c2nccn2CC2CC2)CC1 [DDD01256942] | <30 | 104.28
37 | CN(C)C(=O)N1C[C@H]2CC[C@@H](C1)N(C/C=C/c1ccc(F)cc1)C2 [DDD01256992] | 32.94 | <30
38 | COc1ccc(C(=O)N2CCOC3(CNCCOC3)C2)c(OC)n1 (stereo not drawn) [DDD01257050] | <30 | 126.32
39 | CN(Cc1ccccc1CN1CCCC1)C(=O)c1c[nH]c(=O)[nH]1 [DDD01257093] | 34.04 | <30
40 | Cc1ccc(F)cc1CC(=O)N(CCN1CCOCC1)Cc1ccco1 [DDD01257151] | 36.90 | <30
41 | O=C1N(CCC2CCCCC2)CCCC1(O)CNCCc1ccccc1 (stereo not drawn) [DDD01257222] | <30 | 147.75
42 | CCn1cc(CN(C)C(=O)c2cccc(CCC(C)(C)O)c2)cn1 [DDD01257573] | 32.19 | <30
43 | CN(CCO)Cc1nnc(C2CCN(C3CCCCC3)CC2)n1C [DDD01257771] | 30.00 | <30
44 | COc1ccc(C(=O)C2CCCN(Cc3ccncc3)C2)c(OC)c1 (stereo not drawn) [DDD01257881] | 31.13 | <30

Row | SMILES | %Inhibition Female @2uM [1] [%] | %Inhibition Male @2uM [2] [%]
45 | c1cn(Cc2nnc(C3CCN(c4nccs4)CC3)n2C2CC2)cn1 [DDD01257895] | 34.43 | <30
46 | Cc1nn(C)cc1C(=O)N1C[C@@H]2CC[C@H]1CN(S(=O)(=O)N(C)C)C2 [DDD01257957] | 39.59 | <30
47 | Cc1cc(C)nc(N2Cc3cnn(Cc4ccc(F)cc4)c3C2)n1 [DDD01258067] | 46.44 | <30
48 | COc1cc(C)c(CN2CCC3(CC2)C(C(=O)O)CC(=O)N3C)cc1C (stereo not drawn) [DDD01258170] | 46.51 | <30
49 | COc1cccc(S(=O)(=O)NC(=O)CC2CCCO2)c1 (stereo not drawn) [DDD01295262] | 46.83 | <30
50 | Cc1nn(C)c(C)c1CCC(=O)N1CCCC(n2cccn2)C1 (stereo not drawn) [DDD01296064] | <30 | 47.51
51 | Cc1cn2c(n1)CCC(NC(=O)Cn1cncn1)C2 (stereo not drawn) [DDD01296301] | 57.78 | <30
52 | NC(=O)COc1ccc(C(=O)N2CCCC(n3ccnc3)C2)cc1 (stereo not drawn) [DDD01296946] | 40.74 | <30
53 | Cc1cnn(CC2CCCN2Cc2nnc(C(C)C)o2)c1 (stereo not drawn) [DDD01296988] | 33.35 | 60.45
54 | CN(Cc1nnc(C2CC2)n1C)C1CCN(Cc2nccn2C)C1 (stereo not drawn) [DDD01296990] | <30 | 57.47
55 | CCS(=O)(=O)N1CCC(NC(=O)c2cc(C)ccc2O)CC1 [DDD01297269] | 56.83 | <30
56 | CC(C)CCc1nc(CNCC2CCCN2c2cccnn2)cs1 (stereo not drawn) [DDD01297850] | 39.30 | <30
57 | CCc1nnc2n1CCN(C(=O)c1nc(-c3ccco3)sc1C)C2 [DDD01298399] | <30 | 30.87
58 | CN1CCOC(CNCc2coc(-c3ccccc3Cl)n2)C1 (stereo not drawn) [DDD01298713] | <30 | 34.66
59 | O=C(c1ccc(-n2ccnc2)cc1)N1CCCC(n2ccnc2)C1 (stereo not drawn) [DDD01298772] | 36.32 | <30
60 | Cc1cc(NC(=O)CN2CCc3cnc(C(C)C)nc3C2)on1 [DDD01298964] | 41.23 | <30
61 | Cc1cc(C)cc(OCCN2CCn3c(C)nnc3C2)c1 [DDD01299569] | 31.60 | <30
62 | CCN1CCN(Cc2csc(C(C)C)n2)CC1 [DDD01301366] | <30 | 30.44
63 | CC(C)COC(C)C(=O)NCc1ccc(-n2cncn2)nc1 (stereo not drawn) [DDD01301486] | 33.08 | <30
64 | COc1ccc(-c2nc(CNCCn3cccn3)cs2)cc1 [DDD01301541] | 31.18 | <30
65 | CC(CC(=O)NS(=O)(=O)c1ccc2c(c1)OCCO2)c1ccc(F)cc1 (stereo not drawn) [DDD01301601] | 38.27 | <30
66 | c1cnc(-c2nc(CN3CCn4c(nnc4C4CC4)C3)cs2)nc1 [DDD01301615] | 32.48 | <30

Source: paper PMC6143625, “A high throughput screen for next-generation leads targeting malaria parasite transmission” (Nature Communications, 2018)
